The text below walks through data of patent US11708340B2, “Benzothia(di)azepine compounds and their use as bile acid modulators” (Albireo AB, priority 2019, dated 2023).

For orientation: pIC50 means −log10 of the IC50, conventionally taken in molar units. For orientation: Papp A→B means how fast a substance crosses the layer from the apical side. Lower therefore signals poor permeation. The term Papp B→A denotes how fast a substance crosses the layer from the basolateral side. In general, bioavailability refers to the share of a dose that reaches the circulation, judged against a reference dose that is usually intravenous. A low value points to little systemic uptake.

pIC50: −log10 of the molar value. Some results are limits rather than exact numbers.

Data set [1] addresses T1, Human LBAT (Homo sapiens, UniProt Q14973).
T1 construct: expressed in transfected cells; Geneticin selection
T1 sequence (Q14973 1-349): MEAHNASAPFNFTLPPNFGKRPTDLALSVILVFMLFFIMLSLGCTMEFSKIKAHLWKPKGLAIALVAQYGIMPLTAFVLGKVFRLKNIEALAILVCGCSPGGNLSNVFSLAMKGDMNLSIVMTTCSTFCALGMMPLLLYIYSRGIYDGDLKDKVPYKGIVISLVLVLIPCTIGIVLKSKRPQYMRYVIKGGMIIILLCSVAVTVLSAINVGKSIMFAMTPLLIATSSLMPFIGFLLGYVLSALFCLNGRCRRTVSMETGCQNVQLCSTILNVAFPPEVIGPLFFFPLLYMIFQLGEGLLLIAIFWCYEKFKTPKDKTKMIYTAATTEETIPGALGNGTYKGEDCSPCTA
Nature of the data set: LBAT (h/m) assay, human LBAT-overexpressing cells, 3H-taurocholic acid uptake. It counts as cell-based. The note with it: 0.3 μM 3H-taurocholic acid and 7.5 μM cold taurocholic acid, 20 minutes, read-out: hLBAT IC50. The protocol:
20,000 cells (Human or Mouse LBAT-overexpressing cells) were seeded in 96-wells plate (Corning CLS3809) in 100 μL MEM-alpha medium (Gibco 12571-063) supplemented with 10% FBS (Gibco 10438026) containing Geneticin (Gibco 10131-027) (1 mg/mL) and incubated at 37° C. in 5% CO2 for 24 hours. After incubation, media was decanted from the wells and cells were washed two times with 300 μL of basal MEM-alpha medium (FBS-free). After decanting basal MEM-alpha medium each time, plates were tapped against paper towel to ensure maximum removal of residual media.
For human LBAT, incubation mix was prepared by adding test inhibitor dilutions (3-fold serial dilution in DMSO (Sigma D2650), 10 points) in MEM-alpha (without FBS) containing 0.3 μM 3H-taurocholic acid (ARC ART-1368) and 7.5 μM cold taurocholic acid (Sigma T4009) (maintaining 0.2% final DMSO concentration). For mouse LBAT, incubation mix was prepared by adding test inhibitor dilutions (3-fold serial dilution in DMSO, 10 points) in MEM-alpha (without FBS) containing 0.3 μM 3H-taurocholic acid and 25 μM cold taurocholic acid maintaining 0.2% final DMSO concentration).
50 μL of incubation mix containing test inhibitors was then added to the wells (in duplicate) and the plates were incubated for 20 minutes in a CO2 incubator at 37° C. After incubation, the reaction was stopped by keeping the plates on ice water mix for 2-3 minutes and then the incubation mix was aspirated completely from the wells. The wells were washed two times with 250 μL of chilled unlabeled 1 mM taurocholic acid dissolved in HEPES (Gibco 15630080)-buffered (10 mM) HBSS (Gibco 14175079) (pH 7.4). The plates were tapped against a paper towel after every wash to ensure maximum removal of blocking buffer.
100 μL of MicroScint-20 (PerkinElmer 6013621) was added to the wells and kept overnight at room temperature before reading the plates in TopCount NXT™ Microplate Scintillation and Luminescence Counter from PerkinElmer under 3H Test protocol (set at 120 seconds reading time per well, with normal plate orientation).
(§1) All test compounds were provided in powder form at room temperature. 10 mM DMSO stocks of the test compounds were prepared, aliquoted and stored at −20° C. From the 10 mM DMSO stock of the compounds, a 3-fold serial dilution in DMSO was prepared to get a total of 10 dilutions of the test compounds. 0.5 μL of this dilution in DMSO was added to 250 μL of FBS-free basal media containing 3H-taurocholic acid and cold taurocholic acid to prepare the incubation mixture.

The target in data set [2] is T2, Human IBAT (Homo sapiens, UniProt Q12908).
T2 construct: expressed in transfected cells; Puromycin selection
T2 sequence (Q12908 1-348): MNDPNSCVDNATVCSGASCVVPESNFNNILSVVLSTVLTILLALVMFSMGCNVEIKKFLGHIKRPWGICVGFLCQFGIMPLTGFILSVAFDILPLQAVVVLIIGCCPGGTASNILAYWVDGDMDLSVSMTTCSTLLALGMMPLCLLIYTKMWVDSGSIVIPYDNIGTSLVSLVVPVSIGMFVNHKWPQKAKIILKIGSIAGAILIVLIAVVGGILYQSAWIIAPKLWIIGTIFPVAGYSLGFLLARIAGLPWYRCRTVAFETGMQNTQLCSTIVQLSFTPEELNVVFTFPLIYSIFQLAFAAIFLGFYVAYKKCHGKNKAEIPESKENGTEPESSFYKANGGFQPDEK
The data set is described as follows: IBAT (h/m) assay, human IBAT-overexpressing cells, 3H-taurocholic acid uptake. The format is cell-based. The note with it: highest test concentration 10 μM, 20 minutes, read-out: hIBAT IC50. The procedure: 10,000 cells (Human or Mouse IBAT-overexpressing cells) were seeded in 96-wells plate (Corning CLS3809) in 200 μL MEM-alpha medium (Gibco 12571-063) supplemented with 10% FBS (Gibco 10438026) containing Puromycin (Gibco A1113803) (10 μg/mL) and incubated at 37° C. in 5% CO2 for 48 hours. After incubation, media was decanted from the wells and cells were washed two times with 300 μL of basal MEM-alpha medium (FBS-free). After decanting basal MEM-alpha medium each time, plates were tapped against paper towel to ensure maximum removal of residual media. Test inhibitor dilutions (highest test concentration being 10 μM, 3-fold serial dilution, 10 points) prepared in DMSO (Sigma D2650) were added in incubation mix (maintaining 0.2% final DMSO concentration) containing 0.25 μM 3H-taurocholic acid (ARC ART-1368) and 5 μM of cold taurocholic acid (Sigma T4009). 50 μL of incubation mix containing test inhibitors was then added to the wells (in duplicate) and the plates were incubated for 20 minutes in a CO2 incubator at 37° C. After incubation, the reaction was stopped by keeping the plates on ice water mix for 2-3 minutes and then the incubation mix was aspirated completely from the wells. The wells were washed two times with 250 μL of chilled unlabeled 1 mM taurocholic acid dissolved in HEPES (Gibco 15630080)-buffered (10 mM) HBSS (Gibco 14175079) (pH 7.4). The plates were tapped against a paper towel after every wash to ensure maximum removal of blocking buffer.
100 μL of MicroScint-20 (PerkinElmer 6013621) was added to the wells and kept overnight at room temperature before reading the plates in TopCount NXT™ Microplate Scintillation and Luminescence Counter from PerkinElmer under 3H Test protocol (set at 120 seconds reading time per well).
as §1

A short description of data set [3]: Bidirectional permeability assay (Caco-2 cells). It counts as in vitro ADME. Particulars: human, 10 μM in FaSSIF buffer; for Papp A→B at 120 min, 10 μM: Caco-2, pH 7.4, absorptive direction (A2B); for Papp B→A at 120 min, 10 μM: Caco-2, pH 7.4, secretory direction (B2A). The text has this: HepaRG-Based Assay Protocol
Data set [4] in a line: Bioavailability studies. It counts as in vivo, mice (C57BL/6). Particulars: male, mouse, plasma; C57BL/6 mice; single intravenous dose 1 mg/kg and single oral dose 10 mg/kg. The protocol: Male mice (C57BL/6 or CD1) or Wistar rats of 8-9 weeks old were used. For each test compound, two groups of 3 animals each were used. One group was administered a single intravenous dose of 1 mg/kg (vehicle 100% DMSO) through the tail vein and the other group was administered a single oral dose of 10 mg/kg through gavage needle. The group that was administered an oral dose was fasted overnight. Blood samples were collected after 0.083, 0.25, 0.5, 1, 2, 4, 6, 8 and 24 hours following intravenous administration, and after 0.25, 0.5, 1, 2, 4, 6, 8 and 24 hours following oral administration. Blood samples were taken from saphenous vein. 0.2% EDTA was used as the anticoagulant. The samples were analyzed by a discovery grade bioanalytical method developed for the estimation of test compound in plasma, using an LC-MS/MS system.

In data set [5] the test system is OATP KO mice. The data set is described as follows: Effect of LBAT selective compounds on serum bile acid levels in OATP KO mice. It counts as in vivo. Particulars: for effect on serum bile acid levels: oral administration, FIGS. 1 to 4. The text has this:
Male OATP KO mice (Oatp1a/1b cluster knockout mice, Taconic, USA) aged 8 to 9 weeks were used in the studies. After completion of quarantine and acclimatization period, animals were randomized based on body weight into experimental groups (n=4 mice in each). On the experimental day, a baseline blood sample was collected followed by oral dosing of vehicle (0.5% CMC, 0.1% Tween 80) or compound of Example 3, 6, 13 or 15 at the indicated doses. Blood samples were then collected at various time points after dose (indicated in each graph). Blood was allowed to clot, and serum was collected by centrifugation at 3000 g, 4° C. for 15 minutes and stored at −80° C. for further analysis. The total bile acid concentration in each serum sample was determined by using the CELL BIOLABS Total Bile Acids kit (STA631) according to manufacturer's instructions. Mean±SEM, n=4.

`CCCC[C@@H]1CN(c2ccccc2)c2cc(SC)c(O/C=C(\F)C(=O)O)cc2S(=O)(=O)C1` (single isomer, unassigned) [Example 6]: the pIC50 in data set [1] is 8.85. The pIC50 in data set [2] is 5.84. For the same compound, in data set [3], the Papp A→B at 120 min, 10 μM came out at 2.7 ×10⁻⁶ cm/s and the Papp B→A at 120 min, 10 μM turned out to be 5.5 ×10⁻⁶ cm/s. This compound also returned a bioavailability in data set [4] of 26%. In data set [5], the “effect on serum bile acid levels” value is reported as “increased serum bile acid levels”.

As to `CCCC[C@@H]1CN(c2ccccc2)c2cc(SC)c(O/C=C(\F)C(=O)O)cc2S(=O)(=O)N1C` (single isomer, unassigned) [Example 13], the pIC50 in data set [1] was 9.22. Moreover, the pIC50 in data set [2] was 6.25. For the same compound, in data set [3], the Papp A→B at 120 min, 10 μM is 3.1 ×10⁻⁶ cm/s and the Papp B→A at 120 min, 10 μM was 9.6 ×10⁻⁶ cm/s. The compound further displayed a bioavailability in data set [4] of 61%. In data set [5] (oral 30 mg/kg, within one hour after dosing), the “serum bile acids levels” value is “about 100 μmol/L”. The “effect on serum bile acid levels” value in data set [5] was “increased serum bile acids in a dose-dependent manner”.

`CCCC[C@H]1CN(c2ccccc2)c2cc(SCC)c(O/C=C/C(=O)O)cc2S(=O)(=O)N1C` (single isomer, unassigned) [Example 18]: the pIC50 in data set [1] was 8.62. The pIC50 in data set [2] is 5.28. In data set [3], this compound came in with a Papp A→B at 120 min, 10 μM of 15 ×10⁻⁶ cm/s and a Papp B→A at 120 min, 10 μM of 9.7 ×10⁻⁶ cm/s.

Turning to `CCCCC1CN(c2ccccc2)c2cc(SC)c(O/C=C/C(=O)O)cc2S(=O)(=O)C1` (racemic) [Example 1, (E)-3-((3-butyl-7-(methylthio)-1,1-dioxido-5-phenyl-2,3,4,5-tetrahydro-1,5-benzothiazepin-8-yl)oxy)acrylic Acid], the pIC50 in data set [1] is 8.00. Also, the negative-log IC50 (pIC50) in data set [2] is at most 5.00. In data set [3], this compound returned a Papp A→B at 120 min, 10 μM of 25.6 ×10⁻⁶ cm/s and a Papp B→A at 120 min, 10 μM of 19.1 ×10⁻⁶ cm/s.

On to `CCCCC1CN(c2ccc(F)cc2)c2cc(SCC)c(O/C=C/C(=O)O)cc2S(=O)(=O)N1C` (racemic) [Example 23, (E)-3-((3-butyl-7-(ethylthio)-5-(4-fluorophenyl)-2-methyl-1,1-dioxido-2,3,4,5-tetrahydro-1,2,5-benzothiadiazepin-8-yl)oxy)acrylic Acid], for which the pIC50 in data set [1] is 9.00. In data set [2], the pIC50 is 5.51. In data set [3], the Papp A→B at 120 min, 10 μM is 12.6 ×10⁻⁶ cm/s and the Papp B→A at 120 min, 10 μM was 9.3 ×10⁻⁶ cm/s.

For `CCCCC1CN(c2ccccc2)c2cc(SC)c(O/C=C(\F)C(=O)O)cc2S(=O)(=O)N1` (stereo not drawn) [Example 10, (Z)-3-((3-butyl-7-(methylthio)-1,1-dioxido-5-phenyl-2,3,4,5-tetrahydro-1,2,5-benzothiadiazepin-8-yl)oxy)-2-fluoroacrylic Acid], the pIC50 in data set [1] is 9.00. The pIC50 in data set [2] was 5.94. In data set [3], this compound registered a Papp A→B at 120 min, 10 μM of 0.5 ×10⁻⁶ cm/s and a Papp B→A at 120 min, 10 μM of 1.9 ×10⁻⁶ cm/s.

As to `CCCCC1CN(c2ccccc2)c2cc(SC)c(O/C=C(\F)C(=O)O)cc2S(=O)(=O)C1` (stereo not drawn) [Example 4, (Z)-3-((3-butyl-7-(methylthio)-1,1-dioxido-5-phenyl-2,3,4,5-tetrahydro-1,5-benzothiazepin-8-yl)oxy)-2-fluoroacrylic Acid], in data set [1], the pIC50 was 8.72. Moreover, the pIC50 in data set [2] was 5.82. In data set [3], this compound yielded a Papp A→B at 120 min, 10 μM of 2.4 ×10⁻⁶ cm/s and a Papp B→A at 120 min, 10 μM of 6 ×10⁻⁶ cm/s.

`CCCC[C@H]1CN(c2ccccc2)c2cc(SC)c(O/C=C/C(=O)O)cc2S(=O)(=O)C1` (single isomer, unassigned) [Example 3]: the pIC50 in data set [1] was 8.32. In data set [3], this compound returned an apical-to-basolateral permeability (Papp A→B) at 120 min, 10 μM of 24 ×10⁻⁶ cm/s and a Papp B→A at 120 min, 10 μM of 18.8 ×10⁻⁶ cm/s. Also, the bioavailability in data set [4] is 50%. Further, in data set [5], the “effect on serum bile acid levels” value is given as “increased serum bile acid levels”.

`CCCC[C@@H]1CN(c2ccc(F)cc2)c2cc(SC)c(O/C=C/C(=O)O)cc2S(=O)(=O)N1C` (single isomer, unassigned) [Example 22]: the pIC50 is 6.23 in data set [1] and under 5.00 in data set [2].

Turning to `CCCC[C@H]1CN(c2ccccc2)c2cc(SC)c(O/C=C/C(=O)O)cc2S(=O)(=O)N1C` (single isomer, unassigned) [Example 15], in data set [1], the negative logarithm of the IC50 (pIC50) was 8.66. In addition, in data set [3], the Papp A→B at 120 min, 10 μM turned out to be 14.1 ×10⁻⁶ cm/s and the Papp B→A at 120 min, 10 μM worked out at 13 ×10⁻⁶ cm/s. The same compound displayed a bioavailability in data set [4] of 50%. In data set [5], the “effect on serum bile acid levels” value is given as “increased serum bile acid levels”.
